These results are taken from patent US8546579B2, “Bicycloheteroaryl compounds as P2X7 modulators and uses thereof” (Evotec (US) Inc., priority 2006, dated 2013).

The target of this experiment is T1, P2X7 receptor (Homo sapiens, UniProt Q99572).
T1 construct: host or cells: THP-1 cells differentiated with LPS and IFN-γ
T1 sequence (Q99572 1-595): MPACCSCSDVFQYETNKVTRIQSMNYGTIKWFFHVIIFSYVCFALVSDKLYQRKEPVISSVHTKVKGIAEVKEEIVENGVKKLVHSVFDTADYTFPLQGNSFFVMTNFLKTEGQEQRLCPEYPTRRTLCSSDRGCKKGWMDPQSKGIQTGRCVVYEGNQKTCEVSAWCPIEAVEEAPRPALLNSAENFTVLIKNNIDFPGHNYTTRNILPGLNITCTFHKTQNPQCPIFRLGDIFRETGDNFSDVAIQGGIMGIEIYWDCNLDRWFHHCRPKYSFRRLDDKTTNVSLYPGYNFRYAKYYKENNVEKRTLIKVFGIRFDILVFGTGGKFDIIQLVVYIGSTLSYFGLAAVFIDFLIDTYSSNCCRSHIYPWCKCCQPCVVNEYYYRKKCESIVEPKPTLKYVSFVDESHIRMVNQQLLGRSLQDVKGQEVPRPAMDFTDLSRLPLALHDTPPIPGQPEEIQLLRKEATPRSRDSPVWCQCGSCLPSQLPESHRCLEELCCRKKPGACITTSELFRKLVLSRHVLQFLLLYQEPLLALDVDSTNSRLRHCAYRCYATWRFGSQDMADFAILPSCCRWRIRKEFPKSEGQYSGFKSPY
Nature of the experiment: IL-1β release assay in differentiated THP-1 cells stimulated with BzATP (Example 9). Set-up: inhibition: dose or concentration left out as unconfirmed. Conditions: THP-1; read-out: IL-1β % Inhib. The class given is cell-based. In short, it runs like this: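 THP-1 cells differentiated 16 h with LPS and IFN-γ (100 ng/mL each), re-primed 2 h with LPS, then compound-pretreated 30 min before 250 uM BzATP for 45 min. Supernatant IL-1β quantified by ELISA; background-adjusted percent inhibition fitted to four-parameter logistic for IC50.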
Turning to `COCCn1ccc2c(NC(=O)Cc3ccccc3C)cccc2c1=O` [Compound 1438], the inhibition was in the range of 26 to 50%.

As to `COCCn1ccc2c(NC(=O)Cc3cccc(OC)c3)cccc2c1=O` [Compound 1439], the inhibition is 0 to 25%.

For `COCCn1ccc2c(NC(=O)c3cc(C)ccc3Cl)cccc2c1=O` [Compound 1440], the inhibition was in the range of 0 to 25%.

In the case of `COCCn1ccc2c(NC(=O)c3cc(Cl)ccc3C)cccc2c1=O` [Compound 1441], the inhibition lay in the range of 0 to 25%.

For the compound `O=C(Nc1cccc2c(=O)n(Cc3cccnc3)ccc12)c1cc(Cl)ccc1Cl` [Compound 1442], the inhibition lay within 0 to 25%.

`O=C(Nc1cccc2c(=O)n(Cc3cccnc3)ccc12)c1cc(Cl)cc(Cl)c1` [Compound 1443]: the inhibition lay within 0 to 25%.

Regarding `CCOc1ccc(C(=O)Nc2cccc3c(=O)n(Cc4cccnc4)ccc23)cc1` [Compound 1444], the inhibition fell in the range of 0 to 25%.

Turning to `CC(C)(C)c1ccc(C(=O)Nc2cccc3c(=O)n(Cc4cccnc4)ccc23)cc1` [Compound 1446], the inhibition was in the range of 0 to 25%.

Consider `O=C(Nc1cccc2c(=O)n(Cc3cccnc3)ccc12)c1cccc2ccccc12` [Compound 1447], for which the inhibition was 0 to 25%.

As for `O=C(Nc1cccc2c(=O)n(Cc3cccnc3)ccc12)c1ccc2ccccc2c1` [Compound 1448], the inhibition is 0 to 25%.

Regarding `O=C(Cc1ccccc1F)Nc1cccc2c(=O)n(Cc3cccnc3)ccc12` [Compound 1449], the inhibition lay in the range of 26 to 50%.

In the case of `CCOc1ccc(CC(=O)Nc2cccc3c(=O)n(Cc4cccnc4)ccc23)cc1` [Compound 1450], the inhibition was 0 to 25%.

`Cc1ccc(C(=O)Nc2cccc3c(=O)n(Cc4cccnc4)ccc23)cc1Cl` [Compound 1451]: the inhibition lay in the range of 0 to 25%.

For the compound `Cc1cc(Cl)ccc1C(=O)Nc1cccc2c(=O)n(Cc3cccnc3)ccc12` [Compound 1452], the inhibition lay within 0 to 25%.

`O=C(Cc1csc2ccccc12)Nc1cccc2c(=O)n(Cc3cccnc3)ccc12` [Compound 1453]: the inhibition was 0 to 25%.

As to `Cc1cc(C(=O)Nc2cccc3c(=O)n(Cc4cccnc4)ccc23)ccc1F` [Compound 1454], the inhibition is 0 to 25%.

Regarding `O=C(CCc1ccc(Cl)cc1)Nc1cccc2c(=O)n(Cc3cccnc3)ccc12` [Compound 1455], the inhibition lay in the range of 0 to 25%.

Regarding `COc1ccc(C(=O)Nc2cccc3c(=O)n(CC4CCN(C)CC4)ccc23)c(C)c1` [Compound 1456], the inhibition lay in the range of 0 to 25%.

In the case of `Cc1ccccc1CCC(=O)Nc1cccc2c(=O)n(CC3CCN(C)CC3)ccc12` [Compound 1457], the inhibition fell in the range of 0 to 25%.

`CN1CCC(Cn2ccc3c(NC(=O)c4ccc(-c5ccccc5)o4)cccc3c2=O)CC1` [Compound 1458]: the inhibition was in the range of 0 to 25%.

As to `COc1cccc(CCC(=O)Nc2cccc3c(=O)n(CC4CCN(C)CC4)ccc23)c1` [Compound 1459], the inhibition lay within 26 to 50%.

For `CN1CCC(Cn2ccc3c(NC(=O)c4ccc(Cl)cc4Cl)cccc3c2=O)CC1` [Compound 1460], the inhibition fell in the range of 0 to 25%.

With `Cc1cccc(C(=O)Nc2cccc3c(=O)n(CC4CCN(C)CC4)ccc23)c1C` [Compound 1461], the inhibition was in the range of 0 to 25%.

For `Cc1ccc(C(=O)Nc2cccc3c(=O)n(CC4CCN(C)CC4)ccc23)c(C)c1` [Compound 1462], the inhibition is 0 to 25%.

In the case of `Cc1ccc(C)c(C(=O)Nc2cccc3c(=O)n(CC4CCN(C)CC4)ccc23)c1` [Compound 1463], the inhibition is 0 to 25%.

Regarding `COc1cc(OC)cc(C(=O)Nc2cccc3c(=O)n(CC4CCN(C)CC4)ccc23)c1` [Compound 1464], the inhibition was 0 to 25%.

As for `Cc1cccc(C(=O)Nc2cccc3c(=O)n(CC4CCN(C)CC4)ccc23)c1` [Compound 1465], the inhibition was in the range of 0 to 25%.

As to `CC(C(=O)Nc1cccc2c(=O)n(CC3CCN(C)CC3)ccc12)c1ccccc1` (stereo not shown) [Compound 1466], the inhibition was in the range of 0 to 25%.

`COc1ccccc1CCC(=O)Nc1cccc2c(=O)n(CC3CCN(C)CC3)ccc12` [Compound 1467]: the inhibition fell in the range of 0 to 25%.

As for `COc1ccc(CCC(=O)Nc2cccc3c(=O)n(CC4CCN(C)CC4)ccc23)cc1` [Compound 1468], the inhibition fell in the range of 0 to 25%.

Take `CN1CCC(Cn2ccc3c(NC(=O)c4cccc5ccccc45)cccc3c2=O)CC1` [Compound 1469]: the inhibition lay in the range of 0 to 25%.

As for `CN1CCC(Cn2ccc3c(NC(=O)Cc4cccc5ccccc45)cccc3c2=O)CC1` [Compound 1470], the inhibition was 0 to 25%.

Consider `CN1CCC(Cn2ccc3c(NC(=O)c4ccc5ccccc5c4)cccc3c2=O)CC1` [Compound 1471], for which the inhibition was 0 to 25%.

With `COc1ccc(OC)c(CC(=O)Nc2cccc3c(=O)n(CC4CCN(C)CC4)ccc23)c1` [Compound 1472], the inhibition was in the range of 0 to 25%.

Consider `COc1ccc(CC(=O)Nc2cccc3c(=O)n(CC4CCN(C)CC4)ccc23)cc1OC` [Compound 1473], for which the inhibition was in the range of 0 to 25%.

In the case of `COc1ccc(CC(=O)Nc2cccc3c(=O)n(CC4CCN(C)CC4)ccc23)cc1` [Compound 1474], the inhibition fell in the range of 0 to 25%.

Consider `CN1CCC(Cn2ccc3c(NC(=O)CCCc4ccccc4)cccc3c2=O)CC1` [Compound 1475], for which the inhibition fell in the range of 0 to 25%.

Regarding `COc1cc(CC(=O)Nc2cccc3c(=O)n(CC4CCN(C)CC4)ccc23)cc(OC)c1` [Compound 1477], the inhibition was in the range of 0 to 25%.

For `Cc1cc(Cl)ccc1C(=O)Nc1cccc2c(=O)n(CC3CCN(C)CC3)ccc12` [Compound 1478], the inhibition was 0 to 25%.

Turning to `CN1CCC(Cn2ccc3c(NC(=O)CC4CC5CC[C@H]4C5)cccc3c2=O)CC1` (stereo partly shown) [Compound 1479], the inhibition lay in the range of 0 to 25%.

On to `CN1CCC(Cn2ccc3c(NC(=O)c4ccc5c(c4)OCCCO5)cccc3c2=O)CC1` [Compound 1480], for which the inhibition was in the range of 0 to 25%.

As for `Cc1c(Cl)cccc1C(=O)Nc1cccc2c(=O)n(CC3CCN(C)CC3)ccc12` [Compound 1481], the inhibition lay in the range of 0 to 25%.

Take `Cc1cc(C)cc(CC(=O)Nc2cccc3c(=O)n(CC4CCN(C)CC4)ccc23)c1` [Compound 1482]: the inhibition lay in the range of 26 to 50%.

For the compound `CN1CCC(Cn2ccc3c(NC(=O)C4C[C@@H]5CC[C@H]4C5)cccc3c2=O)CC1` (stereo partly shown) [Compound 1483], the inhibition fell in the range of 26 to 50%.

As for `COc1ccc(CC(=O)Nc2cccc3c(=O)n(CC4CCN(C)CC4)ccc23)c(OC)c1` [Compound 1484], the inhibition lay within 0 to 25%.

Take `CN1CCC(Cn2ccc3c(NC(=O)CCc4ccc(Cl)cc4)cccc3c2=O)CC1` [Compound 1485]: the inhibition lay within 0 to 25%.

For the compound `Cc1ccc(Cl)c(C(=O)Nc2cccc3c(=O)n(CC4CCN(C)CC4)ccc23)c1` [Compound 1486], the inhibition is 0 to 25%.

For `Cc1ccc(Cl)cc1C(=O)Nc1cccc2c(=O)n(CC3CCN(C)CC3)ccc12` [Compound 1487], the inhibition lay within 0 to 25%.

Consider `Cc1cccc(CCC(=O)Nc2cccc3c(=O)n(CC4CCN(C)CC4)ccc23)c1` [Compound 1488], for which the inhibition was 0 to 25%.

In the case of `Cc1cccc(C(=O)Nc2cccc3c(=O)n(CC4CCN(C)CC4)ccc23)c1Cl` [Compound 1489], the inhibition was 0 to 25%.

Consider `COc1ccc(C(=O)Nc2cccc3c(=O)n(CC4CCN(C)CC4)ccc23)cc1C` [Compound 1490], for which the inhibition lay within 0 to 25%.

For `Cc1ccc(CCC(=O)Nc2cccc3c(=O)n(CC4CCN(C)CC4)ccc23)c(C)c1` [Compound 1491], the inhibition is 0 to 25%.

Regarding `CN1CCC(Cn2ccc3c(NC(=O)CCc4cccc(Cl)c4)cccc3c2=O)CC1` [Compound 1492], the inhibition is 0 to 25%.

With `COc1ccc(C(=O)Nc2cccc3c(=O)n(CCCN4CCCC4=O)ccc23)c(C)c1` [Compound 1493], the inhibition lay in the range of 0 to 25%.

Consider `C[C@H]1CC[C@H](C(=O)Nc2cccc3c(=O)n(CCCN4CCCC4=O)ccc23)CC1` [Compound 1494], for which the inhibition is 0 to 25%.

As to `Cc1ccccc1CCC(=O)Nc1cccc2c(=O)n(CCCN3CCCC3=O)ccc12` [Compound 1495], the inhibition lay within 0 to 25%.

With `O=C(Nc1cccc2c(=O)n(CCCN3CCCC3=O)ccc12)c1ccc(-c2ccccc2)o1` [Compound 1496], the inhibition lay within 0 to 25%.

As to `COc1cccc(CCC(=O)Nc2cccc3c(=O)n(CCCN4CCCC4=O)ccc23)c1` [Compound 1497], the inhibition was in the range of 26 to 50%.

As to `Cc1cc(C)c(CC(=O)Nc2cccc3c(=O)n(CCCN4CCCC4=O)ccc23)c(C)c1` [Compound 1498], the inhibition was 0 to 25%.

Take `Cc1ccc(C)c(CC(=O)Nc2cccc3c(=O)n(CCCN4CCCC4=O)ccc23)c1` [Compound 1499]: the inhibition is 0 to 25%.

For `COc1ccc(C(=O)Nc2cccc3c(=O)n(CCCN4CCCC4=O)ccc23)cc1Cl` [Compound 1500], the inhibition was in the range of 0 to 25%.

As to `O=C(CCc1ccccc1Cl)Nc1cccc2c(=O)n(CCCN3CCCC3=O)ccc12` [Compound 1501], the inhibition lay within 0 to 25%.

Consider `O=C(CCc1ccc2c(c1)OCO2)Nc1cccc2c(=O)n(CCCN3CCCC3=O)ccc12` [Compound 1502], for which the inhibition was 0 to 25%.

In the case of `Cc1cc(C(=O)Nc2cccc3c(=O)n(CCCN4CCCC4=O)ccc23)ccc1Cl` [Compound 1503], the inhibition was 0 to 25%.
